Experiments:
[1] = biological target: T1, human 5-HT1A receptor (Homo sapiens, UniProt P08908); test: Human 5-HT1A functional FLIPR assay (agonist mode); assay type: cell-based; design: expressed in transfected cells; conditions: h5-HT1A, curve fitting with activation (%) @ 10 mM with RFU (footnote)
T1 sequence (P08908 1-422): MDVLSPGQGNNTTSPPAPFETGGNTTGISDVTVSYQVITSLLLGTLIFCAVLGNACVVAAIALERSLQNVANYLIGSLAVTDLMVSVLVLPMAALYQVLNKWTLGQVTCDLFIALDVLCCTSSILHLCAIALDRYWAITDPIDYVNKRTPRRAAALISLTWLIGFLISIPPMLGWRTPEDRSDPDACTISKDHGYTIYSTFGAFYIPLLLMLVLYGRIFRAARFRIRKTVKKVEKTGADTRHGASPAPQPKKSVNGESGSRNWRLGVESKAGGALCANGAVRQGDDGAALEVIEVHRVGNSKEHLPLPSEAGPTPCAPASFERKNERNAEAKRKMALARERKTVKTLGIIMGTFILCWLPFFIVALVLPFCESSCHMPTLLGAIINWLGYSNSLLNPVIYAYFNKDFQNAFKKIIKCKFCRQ
Experimental: The potential excitatory effects of compounds targeting on 5-hydroxytryptamine receptor 1A (5-HT1A) under agonist mode was assessed.
HTR1A&Gα15-CHO cells were cultured in DMEM/F12 medium containing 10% dialyzed FBS, 1×penicillin-streptomycin and 600 μg/mL Hygromycin B. The cells were passaged about three times a week, maintained between ~30% to ~90% confluence.
• 1. The cell culture medium (DMEM/F12 medium containing 10% dialyzed FBS, 1×penicillin-streptomycin and 600 μg/mL Hygromycin B), TrypLE™ Express and DPBS was warmed to R.T. in advance. • 2. The cell culture medium was removed from flask. Washed cells with DPBS. • 3. 1 mL TrypLE™ Express was added to the flask, mixed well by gentle shaking and cells were incubated at 37° C. for a few minutes. • 4. The cells were checked for morphological change under microscope, the digestion was stopped by adding 2 mL cell culture medium to the flask when most of cells turned to round. • 5. The cell suspension was transferred into a 15 mL centrifuge tube, and then centrifuged at 1,200 rpm for 5 minutes. • 6. The supernatant was removed. The cell pellet were resuspended with 2 mL cell culture medium. • 7. The cell density were counted using cell counter. Only cells with >85% viability were used for the assay. • 8. Cells were diluted to 4×10^5/mL with cell culture medium. • 9. 30 μL/well cell suspensions were added into a 384-well cell plate (The cell density was 12,000 cells/well). • 10. The cell plate was incubated overnight at 37° C., 5% (v/v) CO2.
• 1. On the day of experiments, culture medium was removed from the cell plate. • 2. 10 μL of assay buffer (20 mM HEPES, in 1×HBSS, pH 7.4) was added to each well of the cell plate. • 3. 2×dye solution was prepared following the manufacture's instruction of the FLIPR® Calcium 6 assay kit: • i. The dye was diluted with assay buffer. • ii. probenecid was added to the final concentration of 5 mM. • iii. Vortexed vigorously for I-2 minutes, adjust pH to 7.4. • 4. 10 μL of 2×dye solution was added to each well of the cell plate. • 5. The cell plate was placed on plate shaker, followed by shaking at 600 rpm for 2 minutes. • 6. The plate was incubated at 37° C. for 2 hours followed by an additional 15-minute incubation at 25° C.
• 1. Serotonin was prepared to the concentration of 10 mM with DMSO, 3-folds serial dilutions were performed with DMSO. • 2. Prepare the test compound to the concentration of 10 mM with DMSO, preform 3-folds serial dilutions with DMSO. • 3. The compounds were added to a 384-well compound source plate. • 4. 90 nL/well of serial diluted compounds were transferred from source plate to a 384-well compound plate by using an Echo. • 5. 30 μL/well of assay buffer was added to the compound plate. • 6. The plate was mixed on-plate shaker for 2 minutes.
• 1. After the cells incubate with dye solution, the cell plate, compound plate containing 3×compounds and FLIPR tips were placed into FLIPR. • 2. 10 μL of 3×compounds were transferred from the compound plate to the cell plate by FLIPR. • 3. The plate was read for 160 sec with 1 sec interval to obtain the data of agonist mode.
• 1. The normalized fluorescence reading (RFU) was calculated as shown below, wherein Fmax and Fmin stand for maximum and minimum of calcium signal during defined time window:
[formula] • 2. EC50 was calculated by fitting RFU against log of compound concentrations with Hill equation using XLfit.

[2] = Liver microsomes stability, human; conditions: for Remaining Percentage (%) after 60 min, Human, With cofactors / Remaining Percentage (%) after 60 min, Human, Without cofactors: human liver microsomes; for half-life at 2 μM / microsomal CLint at 2 μM / metabolic stability in liver microsomes (statement): human; for half-life at 2 μM / microsomal CLint at 2 μM: pooled human liver microsomes; for metabolic stability in liver microsomes (statement): rat and mouse liver microsomes
Experimental: 40 μL of 10 mM NADPH solution was added to each well. The final concentration of NADPH was 1 mM. The negative control samples were prepared by replacing NADPH with 40 μL of ultra-pure H2O. Samples were prepared in duplicate. Negative controls were prepared in singlet.
This study was performed in duplicate.
LC/MS analysis was performed for all samples from this study using a Shimadzu liquid chromatograph separation system equipped with degasser DGU-20A5R; solvent delivery unit LC-30AD; system controller SIL-30AC; column oven CTO-30A; CTC Analytics HTC PAL System. Mass spectrometric analysis was performed using a Triple Quad™ 5500 instrument.
(§1) All calculations were carried out using Microsoft Excel.
All calculations were carried out using Microsoft Excel. Peak areas were determined from extracted ion chromatograms.

[3] = Plasma stability, human; assay type: in vitro ADME
Experimental: (§2) • a. […] The final concentration of organic solvents was 0.5%. The assay was performed in duplicated. • b.
as §1

[4] = Plasma stability, rat; assay type: in vitro ADME
Experimental: as §2, §1

[5] = Plasma stability, mouse; assay type: in vitro ADME
Experimental: as §2, §1

[6] = Plasma stability, dog; assay type: in vitro ADME; conditions: for half-life: 37° C.
Experimental: as §2, §1

Compound	RFU@10 μM [1] [RFU]	Remaining Percentage (%) after 60 min, Human, With cofactors [2] [%]	Remaining Percentage (%) after 60 min, Human, Without cofactors [2] [%]	half-life at 2 μM [2] [min]	microsomal CLint at 2 μM [2] [µL/min/mg]	metabolic stability in liver microsomes (statement) [2]	Remaining Percentage (%) 0 min [3] [%]	Remaining Percentage (%) 30 min [3] [%]	Remaining Percentage (%) 60 min [3] [%]	Remaining Percentage (%) 120 min [3] [%]	Remaining Percentage (%) 180 min [3] [%]	Remaining Percentage (%) 240 min [3] [%]	Remaining Percentage (%) 0 min [4] [%]	Remaining Percentage (%) 30 min [4] [%]	Remaining Percentage (%) 60 min [4] [%]	Remaining Percentage (%) 120 min [4] [%]	Remaining Percentage (%) 180 min [4] [%]	Remaining Percentage (%) 240 min [4] [%]	Remaining Percentage (%) 0 min [5] [%]	Remaining Percentage (%) 30 min [5] [%]	also measured
CN1CCC[C@@H]1Cc1c[nH]c2cccc(O)c12 [Compound 10, (R)-3-((1-methylpyrrolidin-2-yl)methyl)-1H-indol-4-ol]	425																				
[2H]C([2H])(c1c[nH]c2cccc(O)c12)[C@H]1CCCN1C([2H])([2H])[2H] [Compound 13, (R)-3-((1-(methyl-d3)pyrrolidin-2-yl)methyl-d2)-1H-indol-4-ol]	307																				
CN1CCC[C@@H]1Cc1c[nH]c2cccc(OC(=O)CCCC(=O)Oc3cccc4[nH]cc(C[C@H]5CCCN5C)c34)c12 [Compound I-13, Bis(3-(((R)-1-methylpyrrolidin-2-yl)methyl)-1H-indol-4-yl) glutarate]	87	0	0	< 4.51	> 307	rapidly metabolized	100.00	0.00	0.00	0.00	0.00	0.00	100.00	0.00	0.00	0.00	0.00	0.00	100.00	0.00	Remaining Percentage (%) 60 min [5]: 0.00%; Remaining Percentage (%) 120 min [5]: 0.00%; Remaining Percentage (%) 180 min [5]: 0.00%; Remaining Percentage (%) 240 min [5]: 0.00%; Remaining Percentage (%) 0 min [6]: 100.00%; half-life [6]: 49.2 min; Remaining Percentage (%) 30 min [6]: 67.21%; Remaining Percentage (%) 60 min [6]: 44.90%; Remaining Percentage (%) 120 min [6]: 15.17%; Remaining Percentage (%) 180 min [6]: 8.32%; Remaining Percentage (%) 240 min [6]: 3.48%
[2H]C([2H])(c1c[nH]c2cccc(OC(=O)CCCC(=O)Oc3cccc4[nH]cc(C([2H])([2H])[C@H]5CCCN5C([2H])([2H])[2H])c34)c12)[C@H]1CCCN1C([2H])([2H])[2H] [Compound I-22, bis(3-(((R)-1-(methyl-d3)pyrrolidin-2-yl)methyl-d2)-1H-indol-4-yl) glutarate]	130	0	1.38	4.67	297	rapidly metabolized	100.00	0.00	0.00	0.00	0.00	0.00	100.00	0.00	0.00	0.00	0.00	0.00	100.00	0.00	Remaining Percentage (%) 60 min [5]: 0.00%; Remaining Percentage (%) 120 min [5]: 0.00%; Remaining Percentage (%) 180 min [5]: 0.00%; Remaining Percentage (%) 240 min [5]: 0.00%; Remaining Percentage (%) 0 min [6]: 100.00%; half-life [6]: 24.9 min; Remaining Percentage (%) 30 min [6]: 39.05%; Remaining Percentage (%) 60 min [6]: 14.86%; Remaining Percentage (%) 120 min [6]: 3.51%; Remaining Percentage (%) 180 min [6]: 0.92%; Remaining Percentage (%) 240 min [6]: 0.56%
CN(C)CCc1c[nH]c2cccc(O)c12 [Psilocin, 4-hydroxy-N,N-dimethyltryptamine, reference compound]	140	70.16																			t1/2 Human ([2]; human liver microsomes with NADPH, 2 μM): 117.32 min
